Test results taken from PMC12073402, “A Selective MAP3K1 Inhibitor Facilitates Discovery of NPM1 as a Member of the Network” (Molecules, 2025).
Read-outs that look alike come from different tables or passages of the source.

Assays:
[1] = biological target: T1, CLK1 (Homo sapiens, UniProt P49759); test: KiNativ kinome profiling in PANC-1 lysate; format: binding; conditions: Lys2
T1 construct: endogenous in cells; host or cells: PANC-1 cell lysate
Excerpt: (§1) To assess target engagement and selectivity, we opted to conduct a kinome screen (KiNativ) in PANC-1 cell lysates. This chemical proteomics (chemoproteomics) methodology allows for the evaluation of small-molecule binding to protein kinases in native systems such as cell lysates. KiNativ utilizes a soluble chemical probe comprising ATP linked to biotin through an acyl-phosphate bond. The probe covalently modifies conserved lysine residues found in the ATP binding site of essentially all protein kinases (Figure 2A). To profile a kinase inhibitor, cell lysates are treated with a vehicle control or inhibitor prior to addition of the desthiobiotin ATP probe. The ATP probe occupies the ATP binding site in the kinase, which enables the conserved lysines to be biotinylated. […] The cell lysates are digested with a protease (trypsin), biotinylated peptides are affinity-enriched on streptavidin beads, and the labeled peptides are analyzed by liquid chromatography–tandem MS (Figure 2B). If an inhibitor binds to a kinase, it competes with the ATP, thus resulting in a loss of that kinase-associated peptide signal, allowing for the quantitative measurement of inhibitor binding. Unlike recombinant enzyme assays, KiNativ IC50 values are a direct measure of active site binding instead of enzymatic activity.
(§2) Kinome profiling quantified the activity of 51-106 against >300 kinases in the PANC-1 cells. The results summarized in Figure 2C are the average of duplicate control and duplicate treated samples with 5 μM of 51-106 or DMSO.
(§3) KiNativ assay with 51-106.
(§4) ATP Loop: ATP binding loop
(§5) Activation Loop: Activation loop
(§6) ATP: ATP site in non-canonical kinase (e.g. lipid kinase)
(§7) Protein Kinase Domain: Other lysine within kinase domain, possibly not in ATP binding site
(§8) Other: Labeling of residue outside of the protein kinase domain, possibly not in ATP binding site
(§9) No change. NB = No Binding (≤ 0)
(§10) >100% increase in MS signal (>2 fold increase)
(§11) Data points inhibited […] & not considered significant are left uncolored
(§12) Note: This KiNativ dataset is the result of an analysis of duplicate treated samples and control samples.
(§13) The % changes in MS signals being reported are statistically significant (Student T -test score < 0.04)

[2] = biological target: T2, IRE1 (Homo sapiens, UniProt O75460); test: KiNativ kinome profiling in PANC-1 lysate; format: binding
T2 construct: we opted to conduct a kinome screen (KiNativ) in PANC-1 cell lysates; endogenous in cells; host or cells: PANC-1 cell lysate
Excerpt: as §1, §2, §3, §4, §5, §6, §7, §8, §9, §10, §11, §12, §13

[3] = system: PCTAIRE1, PCTAIRE3; test: KiNativ kinome profiling in PANC-1 lysate; format: binding; conditions: 5 µM; Lys2; DLKPQNLLINER
Excerpt: as §1, §2, §3, §4, §5, §6, §7, §8, §9, §10, §11, §12, §13

[4] = biological target: T3, CaMK1d (Homo sapiens, UniProt Q8IU85); test: KiNativ kinome profiling in PANC-1 lysate; format: binding
T3 construct: endogenous in cells; host or cells: PANC-1 cell lysate
Excerpt: as §1, §2, §3, §4, §5, §6, §7, §8, §9, §10, §11, §12, §13

[5] = system: FYN, SRC, YES; test: KiNativ kinome profiling in PANC-1 lysate; format: binding; conditions: 5 µM; ATP Loop; QGAKFPIKWTAPEAALYGR
Excerpt: as §1, §2, §3, §4, §5, §6, §7, §8, §9, §10, §11, §12, §13

[6] = biological target: T4, MSK2 domain1 (Homo sapiens, UniProt O75676); test: KiNativ kinome profiling in PANC-1 lysate; format: binding
T4 construct: endogenous in cells; host or cells: PANC-1
Excerpt: as §1, §2, §3, §4, §5, §6, §7, §8, §9, §10, §11, §12, §13

[7] = biological target: T5, MARK2 (Homo sapiens, UniProt Q7KZI7); test: KiNativ kinome profiling in PANC-1 lysate; format: binding; conditions: Lys1
T5 construct: endogenous in cells; host or cells: PANC-1 cell lysate
Excerpt: as §1, §2, §3, §4, §5, §6, §7, §8, §9, §10, §11, §12, §13

[8] = biological target: T6, PFTAIRE1 (Homo sapiens, UniProt O94921); test: KiNativ kinome profiling in PANC-1 lysate; format: binding; conditions: Lys1
T6 construct: endogenous in cells; host or cells: PANC-1 cell lysate
Excerpt: as §1, §2, §3, §4, §5, §6, §7, §8, §9, §10, §11, §12, §13

[9] = system: MARK3, MARK4; test: KiNativ kinome profiling in PANC-1 lysate; format: binding; conditions: 5 µM; Lys1; EVAIKIIDK
Excerpt: as §1, §2, §3, §4, §5, §6, §7, §8, §9, §10, §11, §12, §13

[10] = biological target: T7, PDK1 (Homo sapiens, UniProt O15530); test: KiNativ kinome profiling in PANC-1 lysate; format: binding; conditions: Lys1
T7 construct: endogenous in cells; host or cells: PANC-1 cell lysate
Excerpt: as §1, §2, §3, §4, §5, §6, §7, §8, §9, §10, §11, §12, §13

[11] = biological target: T8, RAF1 (Homo sapiens, UniProt P04049); test: KiNativ kinome profiling in PANC-1 lysate; format: binding; conditions: Lys2
T8 construct: endogenous in cells; host or cells: PANC-1 cell lysate
Excerpt: as §1, §2, §3, §4, §5, §6, §7, §8, §9, §10, §11, §12, §13

[12] = biological target: T9, MARK4 (Homo sapiens, UniProt Q96L34); test: KiNativ kinome profiling in PANC-1 lysate; format: binding
T9 construct: endogenous in cells; host or cells: PANC-1
Excerpt: as §1, §2, §3, §4, §5, §6, §7, §8, §9, §10, §11, §12, §13

[13] = Pharmacokinetic studies, oral and intravenous dosing; format: in vivo, CD1 mice; conditions: for MRT inf: read-out: MRT 0-∞
Description: Next, we conducted pharmacokinetic (PK) studies with 51-106. Briefly, mice were dosed either intravenously (IV) or orally with 10 mg/kg of 51-106 and sampled at 0.083, 0.25, 0.5, 1, 2, 4, 8, and 24 h. […] This was accomplished by strategic placement of fluorine atoms at metabolically vulnerable sites on the molecule.
Pharmacokinetic studies (10 mg/kg oral and intravenous dosing) were performed following previously reported methods. Sample analysis was performed by liquid chromatography–tandem mass spectrometry (SCIEX QTRAP 4000 LC-MS/MS System). The pharmacokinetic parameters were determined using non-compartmental analyses module of WinNonlin 1.5.

[14] = Metabolic stability in human liver microsomes (LC-MS/MS); format: in vitro ADME
Excerpt: An approach to address this issue of bioavailability is to improve metabolic stability. The para-position of the phenyl ring in acetanilide moieties is susceptible to oxidation. […] To test this, we altered the substitution pattern on the phenyl ring by moving the F atom from the ortho in 84 to the para position (Figure 1A). The regioisomer 51-106, resulting from the above change, was synthesized by coupling 3-(1-methyl-1H-pyrazol-4-yl)quinoxalin-6-amine (1) with freshly prepared 1-fluoro-4-isocyanato-2-(trifluoromethyl)benzene in dichloromethane (Scheme 1). To determine the metabolic stability of 51-106, we incubated 51-106 and analog 84 with human (pooled male and female) liver microsomes and monitored their stability using liquid chromatography–tandem mass spectrometry.
The in vitro metabolic stability of 51-106 was determined using human liver […] (XenoTech, LLC; Kansas City, KS, USA), following previously reported methods. […] Sample analysis was performed by liquid chromatography–tandem mass spectrometry (SCIEX QTRAP 4000 LC-MS/MS System, SCIEX, Framingham, MA, USA).

[15] = mouse, in vivo, CD1 mice, 10 mg/kg, Intravenous
[16] = mouse, in vivo, CD1 mice, 10 mg/kg, Oral

T4 sequence (O75676 whole entry, the tested form may be a part): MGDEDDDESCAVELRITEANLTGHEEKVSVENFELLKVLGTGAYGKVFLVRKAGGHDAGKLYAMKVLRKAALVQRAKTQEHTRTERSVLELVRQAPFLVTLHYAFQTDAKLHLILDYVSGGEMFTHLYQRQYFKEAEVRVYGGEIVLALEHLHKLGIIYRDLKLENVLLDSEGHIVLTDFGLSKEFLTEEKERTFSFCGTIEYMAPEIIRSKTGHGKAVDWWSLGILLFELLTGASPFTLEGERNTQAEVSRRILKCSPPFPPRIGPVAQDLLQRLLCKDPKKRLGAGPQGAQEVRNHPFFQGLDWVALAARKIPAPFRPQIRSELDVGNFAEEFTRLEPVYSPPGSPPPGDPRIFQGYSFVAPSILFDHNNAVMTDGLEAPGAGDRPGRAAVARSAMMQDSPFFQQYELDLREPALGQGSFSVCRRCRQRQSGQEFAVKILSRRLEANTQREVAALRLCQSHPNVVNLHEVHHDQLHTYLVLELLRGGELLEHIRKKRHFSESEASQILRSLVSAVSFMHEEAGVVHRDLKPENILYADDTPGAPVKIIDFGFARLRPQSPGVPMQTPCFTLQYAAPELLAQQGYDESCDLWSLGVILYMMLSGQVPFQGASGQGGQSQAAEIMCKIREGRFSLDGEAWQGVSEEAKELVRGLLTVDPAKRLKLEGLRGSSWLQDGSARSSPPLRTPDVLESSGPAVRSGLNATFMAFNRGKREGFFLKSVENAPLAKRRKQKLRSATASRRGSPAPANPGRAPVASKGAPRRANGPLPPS
T2 sequence (O75460 19-977): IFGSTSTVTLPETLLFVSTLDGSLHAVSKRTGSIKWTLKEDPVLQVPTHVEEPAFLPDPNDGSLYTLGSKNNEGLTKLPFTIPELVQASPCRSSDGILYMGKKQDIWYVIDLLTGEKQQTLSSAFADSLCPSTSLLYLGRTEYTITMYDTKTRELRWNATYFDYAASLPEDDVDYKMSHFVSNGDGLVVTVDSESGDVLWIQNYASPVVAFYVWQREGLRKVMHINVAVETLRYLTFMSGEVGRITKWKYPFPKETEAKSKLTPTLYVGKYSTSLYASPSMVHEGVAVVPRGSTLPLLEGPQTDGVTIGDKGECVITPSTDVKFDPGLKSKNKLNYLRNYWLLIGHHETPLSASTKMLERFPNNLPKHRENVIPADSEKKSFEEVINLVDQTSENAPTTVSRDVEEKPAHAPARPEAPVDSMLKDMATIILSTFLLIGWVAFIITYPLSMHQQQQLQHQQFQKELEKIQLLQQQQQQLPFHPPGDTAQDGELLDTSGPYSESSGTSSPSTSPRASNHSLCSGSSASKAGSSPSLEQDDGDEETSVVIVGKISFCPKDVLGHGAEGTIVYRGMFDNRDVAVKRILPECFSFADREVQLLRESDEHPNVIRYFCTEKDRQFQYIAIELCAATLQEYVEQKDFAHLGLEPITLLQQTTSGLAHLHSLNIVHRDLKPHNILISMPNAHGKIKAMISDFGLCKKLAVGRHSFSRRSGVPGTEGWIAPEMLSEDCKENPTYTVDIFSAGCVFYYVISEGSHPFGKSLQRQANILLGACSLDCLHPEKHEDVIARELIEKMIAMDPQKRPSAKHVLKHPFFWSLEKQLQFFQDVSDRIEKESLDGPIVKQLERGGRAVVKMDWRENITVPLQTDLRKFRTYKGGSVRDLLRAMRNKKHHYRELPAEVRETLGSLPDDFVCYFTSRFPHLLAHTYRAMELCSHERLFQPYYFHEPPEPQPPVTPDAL
T9 sequence (Q96L34 whole entry): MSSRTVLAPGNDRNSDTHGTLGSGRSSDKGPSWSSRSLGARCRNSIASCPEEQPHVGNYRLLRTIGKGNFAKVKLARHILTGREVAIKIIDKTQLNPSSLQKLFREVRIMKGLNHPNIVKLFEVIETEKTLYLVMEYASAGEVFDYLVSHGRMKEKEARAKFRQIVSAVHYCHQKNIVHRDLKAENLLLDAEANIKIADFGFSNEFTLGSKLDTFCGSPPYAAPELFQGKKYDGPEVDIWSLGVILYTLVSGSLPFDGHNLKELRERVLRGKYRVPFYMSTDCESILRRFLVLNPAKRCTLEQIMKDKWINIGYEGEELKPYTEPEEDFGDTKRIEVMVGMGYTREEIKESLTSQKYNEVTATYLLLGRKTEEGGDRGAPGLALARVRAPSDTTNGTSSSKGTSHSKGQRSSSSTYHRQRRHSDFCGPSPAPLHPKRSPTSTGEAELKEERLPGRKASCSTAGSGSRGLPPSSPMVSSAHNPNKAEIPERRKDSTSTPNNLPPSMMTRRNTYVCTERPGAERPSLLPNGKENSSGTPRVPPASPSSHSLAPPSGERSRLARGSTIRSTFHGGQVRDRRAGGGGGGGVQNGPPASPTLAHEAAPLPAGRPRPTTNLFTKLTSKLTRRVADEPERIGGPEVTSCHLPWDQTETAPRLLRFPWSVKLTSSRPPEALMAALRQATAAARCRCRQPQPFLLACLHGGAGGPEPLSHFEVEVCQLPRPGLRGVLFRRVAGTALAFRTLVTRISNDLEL
T3 sequence (Q8IU85 whole entry): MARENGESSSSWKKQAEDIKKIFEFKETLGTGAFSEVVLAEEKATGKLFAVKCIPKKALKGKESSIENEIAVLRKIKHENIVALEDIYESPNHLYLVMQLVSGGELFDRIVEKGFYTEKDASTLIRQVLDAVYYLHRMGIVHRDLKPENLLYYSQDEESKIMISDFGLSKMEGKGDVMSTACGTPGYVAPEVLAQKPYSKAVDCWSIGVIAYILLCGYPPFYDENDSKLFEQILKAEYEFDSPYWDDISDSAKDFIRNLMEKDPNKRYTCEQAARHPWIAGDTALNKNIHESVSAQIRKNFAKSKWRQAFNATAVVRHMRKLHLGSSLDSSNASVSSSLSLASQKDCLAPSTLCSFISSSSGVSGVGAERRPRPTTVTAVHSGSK
T5 sequence (Q7KZI7 whole entry): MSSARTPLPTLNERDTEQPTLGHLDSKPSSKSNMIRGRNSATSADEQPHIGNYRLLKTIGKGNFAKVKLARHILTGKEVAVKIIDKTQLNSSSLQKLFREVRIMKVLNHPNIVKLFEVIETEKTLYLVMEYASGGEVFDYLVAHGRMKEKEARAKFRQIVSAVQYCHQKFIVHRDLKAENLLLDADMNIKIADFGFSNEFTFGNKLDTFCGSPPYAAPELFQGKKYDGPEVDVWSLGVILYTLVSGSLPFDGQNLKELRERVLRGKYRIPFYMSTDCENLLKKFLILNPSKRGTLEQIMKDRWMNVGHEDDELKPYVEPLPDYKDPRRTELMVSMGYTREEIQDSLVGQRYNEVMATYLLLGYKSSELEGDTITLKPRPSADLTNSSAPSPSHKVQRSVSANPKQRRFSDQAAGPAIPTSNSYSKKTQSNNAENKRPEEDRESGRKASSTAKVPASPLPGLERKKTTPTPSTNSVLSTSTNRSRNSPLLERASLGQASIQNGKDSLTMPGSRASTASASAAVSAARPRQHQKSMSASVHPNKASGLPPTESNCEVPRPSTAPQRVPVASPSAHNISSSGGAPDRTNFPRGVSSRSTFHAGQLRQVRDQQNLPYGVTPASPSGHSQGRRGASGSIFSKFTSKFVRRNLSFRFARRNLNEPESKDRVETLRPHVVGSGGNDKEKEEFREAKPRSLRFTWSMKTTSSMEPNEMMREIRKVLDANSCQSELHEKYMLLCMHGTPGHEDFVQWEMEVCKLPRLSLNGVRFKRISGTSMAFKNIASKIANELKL
T6 sequence (O94921 whole entry): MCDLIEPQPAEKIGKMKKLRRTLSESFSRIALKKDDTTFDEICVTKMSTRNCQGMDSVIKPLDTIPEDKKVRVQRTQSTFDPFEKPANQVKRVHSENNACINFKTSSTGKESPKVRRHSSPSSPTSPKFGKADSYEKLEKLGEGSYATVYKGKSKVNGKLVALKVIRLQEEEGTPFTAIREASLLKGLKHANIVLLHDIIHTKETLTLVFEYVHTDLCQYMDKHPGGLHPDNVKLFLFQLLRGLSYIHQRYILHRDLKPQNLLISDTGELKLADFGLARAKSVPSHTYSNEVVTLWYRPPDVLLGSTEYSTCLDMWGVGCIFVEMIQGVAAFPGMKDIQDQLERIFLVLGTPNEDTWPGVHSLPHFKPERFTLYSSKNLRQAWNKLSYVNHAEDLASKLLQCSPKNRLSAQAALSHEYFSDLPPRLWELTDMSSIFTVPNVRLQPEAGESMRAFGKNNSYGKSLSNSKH
T1 sequence (P49759 whole entry): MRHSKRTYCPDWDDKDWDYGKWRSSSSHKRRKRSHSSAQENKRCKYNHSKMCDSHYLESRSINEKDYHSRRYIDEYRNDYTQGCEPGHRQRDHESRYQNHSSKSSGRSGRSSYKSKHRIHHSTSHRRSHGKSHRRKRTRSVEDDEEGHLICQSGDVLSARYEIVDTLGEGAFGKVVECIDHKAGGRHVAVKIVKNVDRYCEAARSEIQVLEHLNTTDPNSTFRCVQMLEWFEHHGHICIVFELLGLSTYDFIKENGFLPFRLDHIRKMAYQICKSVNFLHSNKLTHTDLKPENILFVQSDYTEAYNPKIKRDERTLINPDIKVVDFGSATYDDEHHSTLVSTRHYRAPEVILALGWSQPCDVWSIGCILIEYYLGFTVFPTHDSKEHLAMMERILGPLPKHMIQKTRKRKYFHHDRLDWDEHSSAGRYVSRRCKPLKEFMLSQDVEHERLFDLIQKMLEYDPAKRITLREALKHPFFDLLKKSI

`Cn1cc(-c2cnc3ccc(NC(=O)Nc4ccc(F)c(C(F)(F)F)c4)cc3n2)cn1` [51-106, 1-(4-Fluoro-3-(trifluoromethyl)phenyl)-3-(3-(1-methyl-1H-pyrazol-4-yl)quinoxalin-6-yl)urea] gave an inhibition at 5 µM [1] of 0.5%, an inhibition at 5 µM ([2]; Lys1, GMFDNRDVAVKR) of 8.9% and an inhibition at 5 µM ([2]; Lys2, DLKPHNILISMPNAHGK) of at most 0%. For the same compound, the “% Inhibition” value [3] was 4.8%, the inhibition at 5 µM ([4]; Lys1, LFAVKCIPK) was 30.3% and the inhibition at 5 µM ([4]; Lys2, DLKPENLLYYSQDEESK) was at most 0%. For the same compound, the “% Inhibition” value [5] was 14.0%, the inhibition at 5 µM ([6]; Lys1, LYAMKVLR) was 5.5% and the inhibition at 5 µM ([6]; Lys2, DLKLENVLLDSEGHIVLTDFGLSK) was at most 0%. For the same compound, the inhibition at 5 µM [7] was 5%, the inhibition at 5 µM [8] was 7.7% and the “% Inhibition” value [9] was “NB (NB = No Binding (≤ 0))”. The inhibition at 5 µM [10] was at most 0%, the inhibition at 5 µM [11] was at most 0% and the inhibition at 5 µM ([12]; Lys1, EVAIKIIDKTQLNPSSLQK) was at most 0%. The inhibition at 5 µM ([12]; Lys2, DLKAENLLLDAEANIK) was 10.3%, the “improvement of oral bioavailability” value ([13]; 51-106 compared to analog 84) was ~ 3.5 fold and the “improvement of t1/2 in mice” value ([13]; 51-106 compared to analog 84) was ~ 1.4 fold. For the same compound, the bioavailability ([13]; CD1, mouse, in vivo, po, 10 mg/kg, CD1 mice, 10 mg/kg, Oral, read-out: Bioavailability (%F)) was 62.3%, the “Bioavailability (%F)” value ([13]; CD1 mice, 10 mg/kg, Oral) was about 62% and the AUC(0-inf) [13, 15] was 9120 ± 755 ng·h/mL. For the same compound, the AUC(0-t) [13, 15] was 8960 ± 812 ng·h/mL, the Cmax [13, 15] was 4380 ± 447 ng/mL and the half-life [13, 15] was 1.7 ± 0.3 h. It also gave an MRT inf [13, 15] of 2.2 ± 0.3 h, a Vd ([13]; mouse, in vivo, CD1 mice, 10 mg/kg, Intravenous, read-out: Vss) of 2.5 ± 0.3 L/kg and an AUC(0-inf) [13, 16] of 5680 ± 1930 ng·h/mL. It also gave an AUC(0-t) [13, 16] of 4580 ± 2500 ng·h/mL, a Cmax [13, 16] of 689 ± 190 ng/mL and a Tmax [13, 16] of 2.7 h. The half-life [13, 16] was 3.5 h, the MRT inf [13, 16] was 6.4 ± 1.5 h and the “improvement in t½ in human liver microsomes” value ([14]; 51-106 versus analog 84) was ~ 3.7 fold. The “T1/2 (half-life) in human liver microsomes” value ([14]; Species Human) was ~ 50 h, the “Hepatic Extraction Ratio (E)” value ([14]; Species Human, human liver microsomes) was 0.03 and the half-life ([14]; both sexes, human, liver microsomes, Species Human, read-out: T1/2 (half-life) in human liver microsomes (converted)) was 50.2 h.
